# Assay results: patent publication US20260137819A1 (Radionetics Oncology, Inc., priority 2022, published 2026)
# Target: T1, human follicle-stimulating hormone receptor (FSHR) (Homo sapiens, UniProt P23945)
# T1 construct: host or cells: CHO-K1
# T1 sequence (P23945 18-695): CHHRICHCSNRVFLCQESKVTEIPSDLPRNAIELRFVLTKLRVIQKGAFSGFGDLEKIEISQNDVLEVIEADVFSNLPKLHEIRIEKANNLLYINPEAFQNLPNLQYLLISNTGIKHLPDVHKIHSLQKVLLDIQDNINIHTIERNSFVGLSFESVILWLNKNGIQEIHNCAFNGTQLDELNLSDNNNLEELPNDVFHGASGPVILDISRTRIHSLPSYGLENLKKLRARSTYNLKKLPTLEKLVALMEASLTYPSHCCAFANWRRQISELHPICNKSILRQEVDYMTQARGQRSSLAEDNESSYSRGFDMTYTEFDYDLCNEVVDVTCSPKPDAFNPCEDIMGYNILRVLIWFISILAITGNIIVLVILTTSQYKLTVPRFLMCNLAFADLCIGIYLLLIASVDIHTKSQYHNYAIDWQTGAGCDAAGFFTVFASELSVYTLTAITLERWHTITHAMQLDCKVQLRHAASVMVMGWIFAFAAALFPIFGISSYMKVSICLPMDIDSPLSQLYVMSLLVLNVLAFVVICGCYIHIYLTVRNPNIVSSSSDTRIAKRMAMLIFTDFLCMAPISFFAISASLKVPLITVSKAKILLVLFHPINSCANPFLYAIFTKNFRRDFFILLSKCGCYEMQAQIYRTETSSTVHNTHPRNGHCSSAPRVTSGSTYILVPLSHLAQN
# Experiment: Measurement of agonist cAMP production by activation of human FSHR
# Type: cell-based
# Details: CHO-K1 human FSHR cells, 30 minutes at 37° C., HTRF cAMP kit; read-out: hFSHR Agonist cAMP EC50
# Experimental: Measurement of agonist cAMP production by activation of human FSHR
# Two days prior to the assay, 5,000 CHO—K1 human FSHR cells (Eurofins #95-0119C2) stably expressing the functional human follicle-stimulating hormone receptor were plated in a 96-well tissue culture-treated plate in growth media supplemented with the appropriate selection agent. […] The cells were incubated for 30 minutes at 37° C. (the final concentrations of the compound ranged from 0-10,000 nM). After the 30-minute incubation at 37° C., lysis buffer (HRTF CAMP kit, Cisbio #62AM5PEB)w as added directly to the cells and incubated for 30-minutes at room temperature. The diluted lysate was transferred and CAMP detection and visualization antibodies (HRTF CAMP kit, Cisbio #62AM5PEB) were added and incubated for 1-24 hours at room temperature. The time-resolved fluorescent signal was read with a Tecan M1000Pro (Tecan) multiplate reader. The intracellular cAMP concentrations were calculated by regression to a standard curve and were plotted vs. the concentration of the agonists. The concentration of test compound or FSH required to generate a half maximal response EC50 were calculated using standard curve-fitting methods. All data manipulations were performed using GraphPad Prism v9.3.1 (GraphPad, San Diego, CA).
row,SMILES,EC50
1,"COc1cc2c(cc1-c1cccc(NC(=O)CCCCCNC(=O)C(CS(=O)(=O)O)NC(=O)CN3CCN(CC(=O)O)CCN(CC(=O)O)CCN(CC(=O)O)CC3)c1)-c1c(c(C(=O)N3CCOCC3(C)C)nn1-c1cc(Cl)cc(Cl)c1)CO2 (stereo in doubt) [Compound 64, (R)-2,2′,2″-(10-(2-((1-((6-((3-(1-(3,5-dichlorophenyl)-3-(3,3-dimethylmorpholine-4-carbonyl)-7-methoxy-1,4-dihydrochromeno[4,3-c]pyrazol-8-yl)phenyl)amino)-6-oxohexyl)amino)-1-oxo-3-sulfopropan-2-yl)amino)-2-oxoethyl)-1,4,7,10-tetraazacyclododecane-1,4,7-triyl)triacetic acid]",< 10 nM
2,"COc1cc2c(cc1-c1cccc(NC(=O)NCCOCCOCCOCCOCCOCCOCCNC(=O)CN3CCN(CC(=O)O)CCN(CC(=O)O)CCN(CC(=O)O)CC3)c1)-c1c(c(C(=O)N(C)C(C)(C)C)nn1-c1cc(Cl)cc(Cl)c1)CO2 [Compound 1, 2,2′,2″-(10-(1-((3-(3-(tert-butyl(methyl)carbamoyl)-1-(3,5-dichlorophenyl)-7-methoxy-1,4-dihydrochromeno[4,3-c]pyrazol-8-yl)phenyl)amino)-1,24-dioxo-5,8,11,14,17,20-hexaoxa-2,23-diazapentacosan-25-yl)-1,4,7,10-tetraazacyclododecane-1,4,7-triyl)triacetic acid]",< 10 nM
3,"COc1cc2c(cc1-c1cccc(NC(=O)NCCOCCOCCOCCOCCNC(=O)CN3CCN(CC(=O)O)CCN(CC(=O)O)CCN(CC(=O)O)CC3)c1)-c1c(c(C(=O)N(C)C(C)(C)C)nn1-c1cc(Cl)cc(Cl)c1)CO2 [Compound 2, 2,2′,2″-(10-(1-((3-(3-(tert-butyl(methyl)carbamoyl)-1-(3,5-dichlorophenyl)-7-methoxy-1,4-dihydrochromeno|4,3-c|pyrazol-8-yl)phenyl)amino)-1,18-dioxo-5,8,11,14-tetraoxa-2,17-diazanonadecan-19-yl)-1,4,7,10-tetraazacyclododecane-1,4,7-triyl)triacetic acid]",< 10 nM
4,"COc1cc2c(cc1-c1cccc(NC(=O)CCOCCOCCOCCOCCOCCOCCNC(=O)CN3CCN(CC(=O)O)CCN(CC(=O)O)CCN(CC(=O)O)CC3)c1)-c1c(c(C(=O)N(C)C(C)(C)C)nn1-c1cc(Cl)cc(Cl)c1)CO2 [Compound 3A, indium (III) 2,2′,2″-(10-(24-((3-(3-(tert-butyl(methyl)carbamoyl)-1-(3,5-dichlorophenyl)-7-methoxy-1,4-dihydrochromeno[4,3-c]pyrazol-8-yl)phenyl)amino)-2,24-dioxo-6,9,12,15,18,21-hexaoxa-3-azatetracosyl)-1,4,7,10-tetraazacyclododecane-1,4,7-triyl)triacetate]",< 10 nM
5,COc1cc2c(cc1-c1cccc(C(=O)NCCOCCOCCOCCOCCOCCOCCNC(=O)CN3CCN(CC(=O)O)CCN(CC(=O)O)CCN(CC(=O)O)CC3)c1)-c1c(c(C(=O)N(C)C(C)(C)C)nn1-c1cc(Cl)cc(Cl)c1)CO2 [Compound 4],< 10 nM
6,"COc1cc2c(cc1-c1ccc(NC(=O)NCCOCCOCCOCCOCCOCCOCCNC(=O)CN3CCN(CC(=O)O)CCN(CC(=O)O)CCN(CC(=O)O)CC3)cc1)-c1c(c(C(=O)N(C)C(C)(C)C)nn1-c1cc(Cl)cc(Cl)c1)CO2 [Compound 5, 2,2′,2″-(10-(1-((4-(3-(tert-butyl(methyl)carbamoyl)-1-(3,5-dichlorophenyl)-7-methoxy-1,4-dihydrochromeno[4,3-c]pyrazol-8-yl)phenyl)amino)-1,24-dioxo-5,8,11,14,17,20-hexaoxa-2,23-diazapentacosan-25-yl)-1,4,7,10-tetraazacyclododecane-1,4,7-triyl)triacetic acid]",10 to 100 nM
